From US8062651B1, “Attractant pheromone for the male pink hibiscus mealybug, Maconellicoccus hirsutus (Green) (Homoptera: Pseudococcidae)” (The United States of America as represented by the …, priority 2004, dated 2011)

Assays:
[1] = test system: male M. hirsutus antennae; conditions: alcoholic moieties found in volatile extracts; Zhang et al. 2004; cited from earlier work
[2] = test system: male M. hirsutus; experiment: Field bioassay: sticky traps baited with rubber septa lures; format: in vivo, Maconellicoccus hirsutus; conditions: (R)-lavandulol and (R)-maconelliol together, equal amount to ester, 1 and 10-μg doses, 1:5
Description: Field Bioassays: Gray halo-butyl rubber septa (5 mm, West Pharmaceutical Services, Kearney, Nebr.) loaded with 1 μg of RS, SR, RR, and SS binary diastereoisomeric mixtures of two candidate pheromone compounds placed on white sticky cards (Pherocon V traps, Trécé, Salinas, Calif.) were used for the field trails in Florida. Treatments were arranged in a randomized complete block design with nine replicates and about ˜1 m between traps within replicates. The cards were attached to the top of metal rods and placed one foot above hibiscus plants in a hedgerow. Cards were collected, put separately in transparent plastic bags, and brought back to the laboratory to count the trapped male PHM under a microscope. Comparisons were made between candidate synthetic mixtures and a blank control trap.
Field bioassays: Gray halo-butyl rubber septa (5 mm, West Pharmaceutical Services, Kearney, Nebr.) were soxhlet extracted with acetone for 48 hr and dried in a fume hood before use. The cleaned septa were loaded with the desired rates of candidate pheromone components in ˜40 μl of hexane solution, and used for field tests. The same amount of hexane was loaded on septa for the blank controls. […]

[3] = test system: male M. hirsutus antennae; experiment: Coupled GC-EAD of male antennae; parameters: species or system Maconellicoccus hirsutus; conditions: GC-EAD of female airborne extracts
Description: Analytical Methods: The coupled gas chromatographic-electroantennographic detection (GC-EAD) system used was as previously described (Zhang, A., et al., J. Chem. Ecol., 23: […] (1997); Zhang, A., et al., J. Chem. Ecol., 25: 1221-1232 (1999); Zhang, A., and S. Polavarapu, J. Chem. Ecol., 29: 2153-2164 (2003)). A HP 6890 GC equipped with a 60 m×0.25-mm ID, 0.25-μm film-thickness DB-WAXETR (J&W Scientific Inc., Folsom, Calif.) capillary column in the splitless mode with hydrogen (1.4 ml/min) as carrier was used for analysis. The column temperature program was hold at 80° C. for 2 min, then heated to 250° C. at 15° C./min and held for 15 min. Electron impact mass spectrometry (EI mass) was conducted on a HP 6890 GC coupled to a HP 5973 Mass Selective Detector using an a 60 m×0.25-mm ID, 0.25-μm film-thickness DB-WAXETR capillary column at 50° C. for 2 min, then programmed to 230° C. at 15° C./min and held for 15 min or a 30 m×0.25-mm ID, 0.25-μm film-thickness DB-1 capillary column (50° C. for 2 min, then programmed to 300° C. at 15° C./min and held for 15 min) with helium as carrier gas. […] GC-Fourier transform infrared (FTIR) spectra were recorded on a HP GC coupled to a Bio-Rad IRD II infrared detector using a 60 m DB-WAXETR capillary column with conditions as described as above. […] NMR spectra were recorded in C6D6 solution on a Bruker QE Plus spectrometer at 300 MHz for ^1H. […]

C=C(C)[C@H](CO)CC=C(C)C [(R)-lavandulol, (R)-(−)-lavandulol, reference compound]
antennal activity [1]: did not elicited any antennal activity
effect on attraction to the RS isomers [2]: significantly reduced attraction

C=C(C)[C@@H](CC=C(C)C)COC(=O)[C@@H](C)CC [compound 1, (R)-2-Isopropenyl-5-methylhex-4-enyl (S)-2-methylbutanoate]
EAD response of male M. hirsutus antennae [3]: consistently responded

CC[C@H](C)C(=O)OC[C@@H]1CC(=C(C)C)C1(C)C [compound 2, [(R)-2,2-Dimethyl-3-(1-methylethylidene)cyclobutyl]methyl (S)-2-methylbutanoate]
EAD response of male M. hirsutus antennae [3]: consistently responded

CC(C)=C1C[C@@H](CO)C1(C)C [(R)-maconelliol, [(R)-(−)-2,2-Dimethyl-3-(1-methylethylidene)cyclobutyl]methanol]
antennal activity [1]: did not elicited any antennal activity
effect on attraction to the RS isomers [2]: significantly reduced attraction
